Measured values taken from ChEMBL document CHEMBL3046483, “Novel 2'-hydroxylfurylchalcones: synthesis and biological activity” (2010).
Activity calls are given as the source filed them. No cut-off for these calls is given here.

Tested on: Pyricularia grisea
Assay: Antifungal activity against Magnaporthe grisea assessed as rice blast control measured after 1 day
Assay type: functional, organism-based

For `N#Cc1cccc(/C=C/C(=O)c2occc2O)c1`, the Activity was “inactive”.
For `O=C(/C=C/c1cccc([N+](=O)[O-])c1)c1occc1O`, the Activity was “inactive”.
In the case of `O=C(/C=C/c1ccc(Cl)cc1Cl)c1occc1O`, the Activity is reported as “inactive”.
`O=C(/C=C/c1ccco1)c1occc1O` was tested, and the Activity was “inactive”.
`COc1ccc(/C=C/C(=O)c2occc2O)cc1` was tested, and the Activity was “inactive”.
For `O=C(/C=C/c1ccc(Cl)cc1)c1occc1O`, the Activity was “inactive”.

Tested on: Sorghum bicolor
Assay: Herbicidal activity against Sorghum bicolor assessed as inhibitory rate of fresh weight gain at 7.5 g/hm'2 relative to control
Assay type: functional

First: N#Cc1cccc(/C=C/C(=O)c2occc2O)c1
Second: O=C(/C=C/c1ccco1)c1occc1O
The “inhibition (INH)” value of the first is higher: 24% for the first, 12.4% for the second.

Tested on: Pseudoperonospora cubensis
Assay: Antifungal activity against Pseudoperonospora cubensis assessed as cucumber downy mildew control measured after 1 day
Assay type: functional, organism-based

With `N#Cc1cccc(/C=C/C(=O)c2occc2O)c1` the Activity was “inactive”.
With `O=C(/C=C/c1cccc([N+](=O)[O-])c1)c1occc1O` the Activity was “inactive”.
For `O=C(/C=C/c1ccc(Cl)cc1Cl)c1occc1O`, the Activity was “inactive”.
`O=C(/C=C/c1ccco1)c1occc1O` was tested, and the Activity was “inactive”.
For `COc1ccc(/C=C/C(=O)c2occc2O)cc1`, the Activity was “inactive”.
In the case of `O=C(/C=C/c1ccc(Cl)cc1)c1occc1O`, the Activity is reported as “inactive”.

Tested on: Dinebra chinensis
Assay: Herbicidal activity against Dinebra chinensis assessed as inhibitory rate of seedling height at 7.5 g/hm'2 relative to control
Assay type: functional

Going from `N#Cc1cccc(/C=C/C(=O)c2occc2O)c1` to `O=C(/C=C/c1cccc([N+](=O)[O-])c1)c1occc1O`, the “inhibition (INH)” value rises from -12.3% to 1.4%.

Compared with `O=C(/C=C/c1ccc(Cl)cc1Cl)c1occc1O`, `O=C(/C=C/c1ccc(Cl)cc1)c1occc1O` is lower in “inhibition (INH)” value: -0.7% for the first, -3.9% for the second.

Going from `O=C(/C=C/c1ccco1)c1occc1O` to `COc1ccc(/C=C/C(=O)c2occc2O)cc1`, the “inhibition (INH)” value rises from -3.2% to 2.1%.

Tested on: Amaranthus tricolor
Assay: Herbicidal activity against Amaranthus tricolor assessed as inhibitory rate of seedling height at 7.5 g/hm'2 relative to control
Assay type: functional

Going from `N#Cc1cccc(/C=C/C(=O)c2occc2O)c1` to `O=C(/C=C/c1cccc([N+](=O)[O-])c1)c1occc1O`, the “inhibition (INH)” value falls from 37.5% to 25%.

First: O=C(/C=C/c1ccc(Cl)cc1Cl)c1occc1O
Second: O=C(/C=C/c1ccc(Cl)cc1)c1occc1O
The “inhibition (INH)” value of the first is lower: 18.8% for the first, 37.5% for the second.

First: O=C(/C=C/c1ccco1)c1occc1O
Second: COc1ccc(/C=C/C(=O)c2occc2O)cc1
The “inhibition (INH)” value of the first is lower: 12.5% for the first, 37.5% for the second.

Tested on: Triticum aestivum
Assay: Herbicidal activity against Triticum aestivum (wheat) assessed as inhibitory rate of seedling height at 7.5 g/hm'2 relative to control
Assay type: functional

Going from `N#Cc1cccc(/C=C/C(=O)c2occc2O)c1` to `O=C(/C=C/c1cccc([N+](=O)[O-])c1)c1occc1O`, the “inhibition (INH)” value rises from 30.5% to 33.9%.

First: O=C(/C=C/c1ccc(Cl)cc1Cl)c1occc1O
Second: O=C(/C=C/c1ccc(Cl)cc1)c1occc1O
The “inhibition (INH)” value of the first is lower: 39.5% for the first, 41.8% for the second.

Going from `O=C(/C=C/c1ccco1)c1occc1O` to `COc1ccc(/C=C/C(=O)c2occc2O)cc1`, the “inhibition (INH)” value rises from 24.4% to 35.4%.

Tested on: Brassica rapa subsp. oleifera
Assay: Herbicidal activity against Brassica rapa subsp. oleifera assessed as inhibitory rate of fresh weight gain at 7.5 g/hm'2 relative to control
Assay type: functional

Going from `N#Cc1cccc(/C=C/C(=O)c2occc2O)c1` to `O=C(/C=C/c1cccc([N+](=O)[O-])c1)c1occc1O`, the “inhibition (INH)” value rises from -5.9% to 85.9%.

First: O=C(/C=C/c1ccc(Cl)cc1Cl)c1occc1O
Second: O=C(/C=C/c1ccc(Cl)cc1)c1occc1O
The “inhibition (INH)” value of the first is higher: 87.2% for the first, 83.5% for the second.

Compared with `O=C(/C=C/c1ccco1)c1occc1O`, `COc1ccc(/C=C/C(=O)c2occc2O)cc1` is lower in “inhibition (INH)” value: 82.1% for the first, 72.3% for the second.

Tested on: Golovinomyces cichoracearum
Assay: Antifungal activity against Golovinomyces cichoracearum assessed as cucumber powdery mildew control measured after 1 day
Assay type: functional
Parameters: concentration or dose not given beside the values

`N#Cc1cccc(/C=C/C(=O)c2occc2O)c1` showed an Activity of less than 10%.
Work on `O=C(/C=C/c1cccc([N+](=O)[O-])c1)c1occc1O` yielded an Activity of less than 10%.
`O=C(/C=C/c1ccc(Cl)cc1Cl)c1occc1O` showed an Activity of less than 10%.
`O=C(/C=C/c1ccco1)c1occc1O` showed an Activity of less than 10%.
`COc1ccc(/C=C/C(=O)c2occc2O)cc1` showed an Activity of less than 10%.
In the case of `O=C(/C=C/c1ccc(Cl)cc1)c1occc1O`, the Activity is reported as less than 10%.

Tested on: Brassica rapa subsp. oleifera
Assay: Herbicidal activity against Brassica rapa subsp. oleifera assessed as inhibitory rate of seedling height at 7.5 g/hm'2 relative to control
Assay type: functional

First: N#Cc1cccc(/C=C/C(=O)c2occc2O)c1
Second: O=C(/C=C/c1cccc([N+](=O)[O-])c1)c1occc1O
The “inhibition (INH)” value of the first is lower: 14.3% for the first, 52.4% for the second.

Compared with `O=C(/C=C/c1ccc(Cl)cc1Cl)c1occc1O`, `O=C(/C=C/c1ccc(Cl)cc1)c1occc1O` is higher in “inhibition (INH)” value: 42.9% for the first, 52.4% for the second.

`O=C(/C=C/c1ccco1)c1occc1O` and `COc1ccc(/C=C/C(=O)c2occc2O)cc1` are the same in “inhibition (INH)” value: 38.1% for the first, 38.1% for the second.

Tested on: Cucumis sativus
Assay: Herbicidal activity against Cucumis sativus (cucumber) assessed as inhibitory rate of fresh weight gain at 7.5 g/hm'2 relative to control
Assay type: functional

First: N#Cc1cccc(/C=C/C(=O)c2occc2O)c1
Second: O=C(/C=C/c1cccc([N+](=O)[O-])c1)c1occc1O
The “inhibition (INH)” value of the first is lower: 13.7% for the first, 40.6% for the second.

First: O=C(/C=C/c1ccc(Cl)cc1Cl)c1occc1O
Second: O=C(/C=C/c1ccc(Cl)cc1)c1occc1O
The “inhibition (INH)” value of the first is lower: 37.3% for the first, 68.2% for the second.

First: O=C(/C=C/c1ccco1)c1occc1O
Second: COc1ccc(/C=C/C(=O)c2occc2O)cc1
The “inhibition (INH)” value of the first is higher: 49.7% for the first, 35.3% for the second.

Tested on: Sorghum bicolor
Assay: Herbicidal activity against Sorghum bicolor assessed as inhibitory rate of seedling height at 7.5 g/hm'2 relative to control
Assay type: functional

Going from `N#Cc1cccc(/C=C/C(=O)c2occc2O)c1` to `O=C(/C=C/c1ccco1)c1occc1O`, the “inhibition (INH)” value falls from 34% to 4%.

Tested on: Dinebra chinensis
Assay: Herbicidal activity against Dinebra chinensis assessed as inhibitory rate of fresh weight gain at 7.5 g/hm'2 relative to control
Assay type: functional

Going from `N#Cc1cccc(/C=C/C(=O)c2occc2O)c1` to `O=C(/C=C/c1cccc([N+](=O)[O-])c1)c1occc1O`, the “inhibition (INH)” value rises from 12.4% to 63.1%.

Going from `O=C(/C=C/c1ccc(Cl)cc1Cl)c1occc1O` to `O=C(/C=C/c1ccc(Cl)cc1)c1occc1O`, the “inhibition (INH)” value falls from 57.1% to 52.6%.

First: O=C(/C=C/c1ccco1)c1occc1O
Second: COc1ccc(/C=C/C(=O)c2occc2O)cc1
The “inhibition (INH)” value of the first is lower: 56.1% for the first, 60.4% for the second.

Tested on: Botrytis cinerea
Assay: Antifungal activity against Botryotinia fuckeliana assessed as cucumber grey mould control measured after 1 day
Assay type: functional, organism-based

For `N#Cc1cccc(/C=C/C(=O)c2occc2O)c1`, the Activity was “inactive”.
For `O=C(/C=C/c1cccc([N+](=O)[O-])c1)c1occc1O`, the Activity was “inactive”.
`O=C(/C=C/c1ccc(Cl)cc1Cl)c1occc1O` was tested, and the Activity was “inactive”.
For `O=C(/C=C/c1ccco1)c1occc1O`, the Activity was “inactive”.
For `COc1ccc(/C=C/C(=O)c2occc2O)cc1`, the Activity was “inactive”.
`O=C(/C=C/c1ccc(Cl)cc1)c1occc1O` was tested, and the Activity was “inactive”.

Tested on: Triticum aestivum
Assay: Herbicidal activity against Triticum aestivum (wheat) assessed as inhibitory rate of fresh weight gain at 7.5 g/hm'2 relative to control
Assay type: functional

Going from `N#Cc1cccc(/C=C/C(=O)c2occc2O)c1` to `O=C(/C=C/c1cccc([N+](=O)[O-])c1)c1occc1O`, the “inhibition (INH)” value rises from 36.1% to 52.5%.

Compared with `O=C(/C=C/c1ccc(Cl)cc1Cl)c1occc1O`, `O=C(/C=C/c1ccc(Cl)cc1)c1occc1O` is higher in “inhibition (INH)” value: 63.4% for the first, 64.6% for the second.

Going from `O=C(/C=C/c1ccco1)c1occc1O` to `COc1ccc(/C=C/C(=O)c2occc2O)cc1`, the “inhibition (INH)” value rises from 49.6% to 53.3%.

Tested on: Amaranthus tricolor
Assay: Herbicidal activity against Amaranthus tricolor assessed as inhibitory rate of fresh weight gain at 7.5 g/hm'2 relative to control
Assay type: functional

Compared with `N#Cc1cccc(/C=C/C(=O)c2occc2O)c1`, `O=C(/C=C/c1cccc([N+](=O)[O-])c1)c1occc1O` is higher in “inhibition (INH)” value: 31.7% for the first, 74.8% for the second.

First: O=C(/C=C/c1ccc(Cl)cc1Cl)c1occc1O
Second: O=C(/C=C/c1ccc(Cl)cc1)c1occc1O
The “inhibition (INH)” value of the first is lower: 69.6% for the first, 81.2% for the second.

First: O=C(/C=C/c1ccco1)c1occc1O
Second: COc1ccc(/C=C/C(=O)c2occc2O)cc1
The “inhibition (INH)” value of the first is higher: 69.6% for the first, 54.8% for the second.

Tested on: Cucumis sativus
Assay: Herbicidal activity against Cucumis sativus (cucumber) assessed as inhibitory rate of seedling height at 7.5 g/hm'2 relative to control
Assay type: functional

Going from `N#Cc1cccc(/C=C/C(=O)c2occc2O)c1` to `O=C(/C=C/c1cccc([N+](=O)[O-])c1)c1occc1O`, the “inhibition (INH)” value rises from 33.3% to 46.8%.

Going from `O=C(/C=C/c1ccc(Cl)cc1Cl)c1occc1O` to `O=C(/C=C/c1ccc(Cl)cc1)c1occc1O`, the “inhibition (INH)” value rises from 35.1% to 36.5%.

First: O=C(/C=C/c1ccco1)c1occc1O
Second: COc1ccc(/C=C/C(=O)c2occc2O)cc1
The “inhibition (INH)” value of the first is higher: 36.1% for the first, 33.3% for the second.
